Results on 2 compounds are retold here after ChEMBL document CHEMBL1138676, “Liver-selective glucocorticoid antagonists: a novel treatment for type 2 diabetes” (J Med Chem, 2004).

For one test, the target named is Estrogen receptor beta (Homo sapiens, UniProt Q92731). Put plainly: Inhibition of human Estrogen receptor beta.
Test [1] has as its target T1, Glucocorticoid receptor (Homo sapiens, UniProt P04150).
T1 sequence (P04150 whole entry): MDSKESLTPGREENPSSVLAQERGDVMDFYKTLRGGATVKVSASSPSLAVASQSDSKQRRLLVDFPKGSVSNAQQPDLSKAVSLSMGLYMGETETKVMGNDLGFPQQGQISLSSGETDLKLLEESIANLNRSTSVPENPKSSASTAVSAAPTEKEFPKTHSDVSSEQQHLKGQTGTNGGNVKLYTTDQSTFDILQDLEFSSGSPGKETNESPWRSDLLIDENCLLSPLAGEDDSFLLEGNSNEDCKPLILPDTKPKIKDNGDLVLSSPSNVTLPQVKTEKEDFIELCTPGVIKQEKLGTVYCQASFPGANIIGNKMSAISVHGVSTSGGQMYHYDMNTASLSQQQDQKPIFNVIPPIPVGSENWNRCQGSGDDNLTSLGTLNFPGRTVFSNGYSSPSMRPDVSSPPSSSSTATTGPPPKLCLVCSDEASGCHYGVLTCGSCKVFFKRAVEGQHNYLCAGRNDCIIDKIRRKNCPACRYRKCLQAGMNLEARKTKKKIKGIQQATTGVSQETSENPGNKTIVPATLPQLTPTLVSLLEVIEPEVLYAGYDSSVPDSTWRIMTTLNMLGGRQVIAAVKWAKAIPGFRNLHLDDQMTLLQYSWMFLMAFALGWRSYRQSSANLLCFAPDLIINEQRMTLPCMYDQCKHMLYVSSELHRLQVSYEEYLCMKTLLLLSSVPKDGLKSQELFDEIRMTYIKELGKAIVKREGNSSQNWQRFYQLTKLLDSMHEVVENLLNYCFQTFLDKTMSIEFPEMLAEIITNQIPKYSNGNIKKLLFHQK
Put plainly: Inhibition of glucocorticoid receptor dependent alkaline phosphatase activity. In kind it is functional.

Test [2] is described as follows: Inhibitory activity of the Compound against rat lymphocytes.
A further test deals with T2, Progesterone receptor (Homo sapiens, UniProt P06401).
T2 sequence (P06401 whole entry): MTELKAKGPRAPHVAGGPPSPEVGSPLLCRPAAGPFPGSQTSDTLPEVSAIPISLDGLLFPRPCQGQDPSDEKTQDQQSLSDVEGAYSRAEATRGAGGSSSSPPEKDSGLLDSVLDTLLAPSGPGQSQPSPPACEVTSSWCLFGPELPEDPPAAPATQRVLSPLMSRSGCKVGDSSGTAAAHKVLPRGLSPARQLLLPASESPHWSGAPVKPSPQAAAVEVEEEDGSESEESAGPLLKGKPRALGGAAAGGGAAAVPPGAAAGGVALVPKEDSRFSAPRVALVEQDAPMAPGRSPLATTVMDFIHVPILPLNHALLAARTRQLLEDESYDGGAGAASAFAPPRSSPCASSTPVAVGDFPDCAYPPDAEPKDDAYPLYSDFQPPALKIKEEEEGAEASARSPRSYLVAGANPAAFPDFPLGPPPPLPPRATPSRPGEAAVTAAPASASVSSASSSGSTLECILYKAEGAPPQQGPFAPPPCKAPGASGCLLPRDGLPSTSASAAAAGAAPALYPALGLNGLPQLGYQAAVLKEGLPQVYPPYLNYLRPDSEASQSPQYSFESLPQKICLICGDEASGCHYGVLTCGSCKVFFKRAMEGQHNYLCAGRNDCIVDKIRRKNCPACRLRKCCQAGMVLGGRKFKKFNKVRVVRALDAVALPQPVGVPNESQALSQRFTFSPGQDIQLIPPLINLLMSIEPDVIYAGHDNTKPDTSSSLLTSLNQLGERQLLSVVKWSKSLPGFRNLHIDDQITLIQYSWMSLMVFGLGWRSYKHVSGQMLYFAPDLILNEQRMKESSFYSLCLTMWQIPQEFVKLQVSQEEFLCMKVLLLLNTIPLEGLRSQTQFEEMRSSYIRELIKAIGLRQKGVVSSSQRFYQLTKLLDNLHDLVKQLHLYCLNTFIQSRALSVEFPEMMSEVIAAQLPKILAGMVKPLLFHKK
Put plainly: Inhibition of human progesterone receptor.

For test [3], the target named is T1, Glucocorticoid receptor. Put plainly: Inhibition of human glucocorticoid receptor.
The target in test [4] is T3, Thyroid hormone receptor alpha (Homo sapiens, UniProt P10827).
T3 sequence (P10827 whole entry): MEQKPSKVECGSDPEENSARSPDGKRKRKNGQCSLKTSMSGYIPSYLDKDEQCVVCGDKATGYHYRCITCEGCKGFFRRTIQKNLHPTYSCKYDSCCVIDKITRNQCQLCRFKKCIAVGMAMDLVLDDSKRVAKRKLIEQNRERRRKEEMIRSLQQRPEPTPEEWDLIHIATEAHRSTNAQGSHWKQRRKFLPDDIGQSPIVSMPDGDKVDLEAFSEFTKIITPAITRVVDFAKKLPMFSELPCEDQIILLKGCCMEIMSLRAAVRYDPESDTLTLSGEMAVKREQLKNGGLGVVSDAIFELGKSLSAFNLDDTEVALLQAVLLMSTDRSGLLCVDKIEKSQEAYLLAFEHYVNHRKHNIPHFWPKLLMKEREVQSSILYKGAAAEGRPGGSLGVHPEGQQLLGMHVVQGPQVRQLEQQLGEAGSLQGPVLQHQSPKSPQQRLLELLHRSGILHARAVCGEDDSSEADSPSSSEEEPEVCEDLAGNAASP
Kind of test: Inhibition of human Thyroid hormone receptor alpha.

Test [5] addresses Glucocorticoid receptor (Rattus norvegicus) (UniProt P06536). Kind of test: Inhibition of glucocorticoid receptor mediated tyrosine aminotransferase activity. On the set-up: concentration or dose not given beside the values. The settings on record: concentration not given here.
The nature of test [6]: Inhibitory activity against rat lymphocytes. On the set-up: concentration or dose not given beside the values.

Some results are limits rather than exact numbers.

Chain of Estrogen receptor beta (Q92731 whole entry): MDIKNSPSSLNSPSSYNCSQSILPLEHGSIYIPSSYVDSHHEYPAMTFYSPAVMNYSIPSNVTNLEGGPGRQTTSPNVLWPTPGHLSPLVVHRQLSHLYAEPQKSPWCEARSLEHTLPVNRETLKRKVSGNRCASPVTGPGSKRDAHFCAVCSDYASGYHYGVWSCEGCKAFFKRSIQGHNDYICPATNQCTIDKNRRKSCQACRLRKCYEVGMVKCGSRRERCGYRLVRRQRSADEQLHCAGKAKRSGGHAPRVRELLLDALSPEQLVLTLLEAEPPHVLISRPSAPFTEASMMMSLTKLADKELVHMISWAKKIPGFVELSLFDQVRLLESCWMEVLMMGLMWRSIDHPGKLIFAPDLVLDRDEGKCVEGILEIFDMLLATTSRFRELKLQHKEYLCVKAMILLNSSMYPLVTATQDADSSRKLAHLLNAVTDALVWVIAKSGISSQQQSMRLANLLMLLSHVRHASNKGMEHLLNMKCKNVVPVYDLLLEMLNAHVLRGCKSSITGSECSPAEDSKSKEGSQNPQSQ
Chain of Glucocorticoid receptor (Rattus norvegicus) (P06536 whole entry, looked up): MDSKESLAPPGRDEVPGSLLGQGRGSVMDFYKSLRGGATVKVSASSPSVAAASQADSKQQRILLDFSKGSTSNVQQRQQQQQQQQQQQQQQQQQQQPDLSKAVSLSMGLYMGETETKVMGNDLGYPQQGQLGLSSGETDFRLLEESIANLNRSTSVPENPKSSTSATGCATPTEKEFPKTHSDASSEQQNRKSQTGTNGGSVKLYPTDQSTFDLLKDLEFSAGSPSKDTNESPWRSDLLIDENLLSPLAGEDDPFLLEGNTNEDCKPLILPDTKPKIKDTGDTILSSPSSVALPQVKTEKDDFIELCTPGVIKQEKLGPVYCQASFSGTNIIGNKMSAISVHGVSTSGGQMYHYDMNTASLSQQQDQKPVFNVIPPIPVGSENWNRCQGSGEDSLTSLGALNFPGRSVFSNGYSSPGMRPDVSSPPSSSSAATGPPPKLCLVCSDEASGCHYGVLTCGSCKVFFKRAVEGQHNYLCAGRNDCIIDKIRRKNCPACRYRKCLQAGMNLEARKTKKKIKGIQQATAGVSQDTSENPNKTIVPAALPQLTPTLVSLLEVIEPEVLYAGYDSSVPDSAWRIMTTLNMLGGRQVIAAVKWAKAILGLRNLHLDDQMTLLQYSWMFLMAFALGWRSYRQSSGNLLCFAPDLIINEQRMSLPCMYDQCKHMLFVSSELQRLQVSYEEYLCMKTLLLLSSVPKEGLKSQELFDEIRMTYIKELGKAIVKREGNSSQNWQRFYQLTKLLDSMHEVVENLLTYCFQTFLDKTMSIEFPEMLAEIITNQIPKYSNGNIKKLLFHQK

On to `C#C[C@]1(O)CC[C@H]2[C@@H]3CCC4=CC(=O)CCC4=C3[C@@H](c3ccc(N(C)CCNC(=O)OC4CC[C@@]5(C)[C@@H](C4)C[C@@H](O)[C@@H]4[C@@H]5C[C@H](O)[C@]5(C)[C@@H]([C@H](C)CCC(=O)O)CC[C@@H]45)cc3)C[C@@]21C` (stereo partly drawn), for which the Ki was more than 750 nM at Estrogen receptor beta; 1.4 nM at Glucocorticoid receptor [1]; 0.39 nM on Progesterone receptor; 0.39 nM at Glucocorticoid receptor [3]; more than 1250 nM in test [4]. In addition, the Inhibition in test [2] is 14%.
Take `C#C[C@]1(O)CC[C@H]2[C@@H]3CCC4=CC(=O)CCC4=C3[C@@H](c3ccc(N(C)CCCOC4CC[C@@]5(C)[C@@H](C4)C[C@@H](O)[C@@H]4[C@@H]5C[C@H](O)[C@]5(C)[C@@H]([C@H](C)CCC(=O)O)CC[C@@H]45)cc3)C[C@@]21C` (stereo partly drawn): the Ki at Estrogen receptor beta is 13 nM; on Glucocorticoid receptor [1], 1.1 nM; at Progesterone receptor, 1.1 nM; on Glucocorticoid receptor [3], 0.22 nM; in test [4], more than 1250 nM. Also, the inhibition in test [5] amounted to 64%. For the same compound, the Inhibition in test [6] was -5%.
